The numbers were not newly measured in patent publication US20020193313A1, “Method of increasing the efficacy of chemotherapy in the treatment of tumors” (priority 2001, published 2002), which cites them from elsewhere.

The test system of data set [1] is in vitro T-cell lymphoma.
For data set [2], the system named is locally advanced breast cancer. The note with it: Tamoxifen to induce cell phase arrest, then estrogen to stimulate growth, 43% without synchronization.
The test system of data set [3] is in vitro breast cancer.
Data set [4] concerns tumor growth.
Data set [5] has as its system advanced stages of different types of cancer. The note with it: topotecan for S phase synchronization followed by doxorubicin.
Data set [6] has as its system various types of cancer. The note with it: in vitro.

For `COC(=O)Nc1nc2ccc(C(=O)c3cccs3)cc2[nH]1` [nocodazole], in data set [1], the “phase of cell cycle arrest” value was “arrest in the M-phase”. Regarding `CC/C(=C(\c1ccccc1)c1ccc(OCCN(C)C)cc1)c1ccccc1` [Tamoxifen], the “patients whose tumors showed favorable response to phase specific chemotherapy” value in data set [2] is listed as “approximately 82%”. As to epidermal growth factor, in data set [3], the “phase of cell cycle arrest” value is given as “arrest of in vitro breast cancer in the G1 phase”. `NC(Cn1ccc(=O)c(O)c1)C(=O)O` (stereo not shown) [mimosine]: the “phase of cell cycle arrest” value in data set [1] is listed as “arrest in the G1 phase”. Consider `CC/C=C\C/C=C\C/C=C\CCCCCCCC(=O)O` [alpha linoleic acid], for which the “effect on tumor growth” value in data set [4] is on record as “stimulate tumor growth”. In the case of `NC(=O)NO` [hydrea], the “phase of cell cycle arrest” value in data set [1] is recorded as “arrest in the S phase”. `C=C[C@H]1C[N@@]2CC[C@H]1C[C@@H]2[C@@H](O)c1ccnc2ccc(OC)cc12` [quinidine]: the “phase of cell cycle arrest” value in data set [3] is recorded as “arrest of in vitro breast cancer in the G1 phase”. With `C[C@@]1(CO)[C@H](O)CC[C@@]2(C)[C@H]1CC[C@H]1C[C@@H]3C[C@@]12CC[C@]3(O)CO` [aphidicoline], in data set [1], the “phase of cell cycle arrest” value was “arrest late in the G1 phase”. Regarding `CC[C@@]1(O)C(=O)OCc2c1cc1n(c2=O)Cc2cc3c(CN(C)C)c(O)ccc3nc2-1` [topotecan], in data set [5], the hematologic toxicity entry is “increased hematologic toxicity”. Turning to `Cc1c(N)nc([C@H](CC(N)=O)NC[C@H](N)C(N)=O)nc1C(=O)N[C@H](C(=O)N[C@H](C)[C@@H](O)[C@H](C)C(=O)N[C@H](C(=O)NCCc1nc(-c2nc(C(=O)NCCCN[C@@H](C)c3ccccc3)cs2)cs1)[C@@H](C)O)[C@@H](O[C@@H]1O[C@@H](CO)[C@@H](O)[C@H](O)[C@@H]1O[C@H]1O[C@H](CO)[C@@H](O)[C@H](OC(N)=O)[C@@H]1O)c1c[nH]cn1` [peplomycin], in data set [6], the cell cycle arrest entry is listed as “arrest the cell cycle”.
